Data published in patent publication US6627649B1, “Pharmaceutical compositions containing in combination two antagonists selective of arginine-vassopressin V receptors, even of V1 a and V2 receptors” (Sanofi-Synthelabo, priority 1998, dated 2003).

Legend:
[1] = test system: normally hydrated conscious rat; assay: water diuresis induced in the normally hydrated conscious rat (urinary volume, osmolality, Na+ and K+ excretion over 24 h); type: in vivo, Sprague Dawley male rats; conditions: for effect on urinary excretion (in words) / effect on urinary excretion of Na+ and K+ ions (in words) / effect on urinary osmolality (in words): oral, over 24 hours
Description: Serradeil-Le Gal et al., J. Clin. Invest. 1996, 98, 2729-2738.
The various assays are performed on Sprague Dawley male rats (280+/−20 g) obtained from Iffa Credo (France).
Twenty four hours before the start of the study, the rats were randomized and placed in metabolic cages with food and water ad libitum. They received orally 3 ml/kg of a 0.6% aqueous solution of methylcellulose. The urines were collected over a 24 hour period, i.e. day D-1.
The next morning the rats are treated orally (solvent or products alone or in combination) and returned individually to their metabolic cage for a period of 24 hours with food and water ad libitum. The urines are collected over a period of 24 hours after treatment, i.e. day D-0.
Urinary osmolality and the urinary excretion of Na^+ and K^+ ions are also measured during the 24 hour period before and after treatment. The urinary osmolality is measured with a freezing point depression osmometer (Fisk OS 110 model, Elvetec, Marseille, France) and the urinary concentrations of sodium and potassium are measured with a flame photometer (IL 943, Instruments Laboratories, Marseille, France).
The compounds alone (compound A, compound B) or in combination (compound A+compound B) are suspended in a 0.6% aqueous solution of methylcellulose and administered by gavage in a final volume of 3 ml/kg.
Compound B was used in the form of its dihydrogen phosphate monohydrate salt, the doses indicated are expressed in terms of the base.
The results are expressed in the form of the mean+/−SEM (standard error of the mean). The statistical analysis of the results is performed by means of a two factor variance analysis with repeated measurements of the time factor. The comparison of the means is made with the aid of the Dunnett test for a comparison with respect to a time or group of reference. Only the values of p lower than 5% are considered to be significant (p<0.05).
ASSAY No. 1: Comparative effect on urinary excretion, urinary osmolality and excretion of the Na^+ and K^+ ions in the rat after oral administration of compound A alone, compound B alone and of the combination compound A^+ compound B.
a) Study Performed by Oral Administration of a Fixed Dose of Compound A (30 mg/kg) combined with increasing doses of compound B (0.3, 1 or 3 mg/kg).
b) Study Performed by Oral Administration of a Fixed Dose of Compound B (1 mg/kg) combined with increasing doses of compound A (3,10 or 30 mg/kg).

human V2 receptors = human V2 receptors (Homo sapiens, UniProt P30518); conditions: cited from earlier work
human V2 receptors, sequence (P30518 whole entry): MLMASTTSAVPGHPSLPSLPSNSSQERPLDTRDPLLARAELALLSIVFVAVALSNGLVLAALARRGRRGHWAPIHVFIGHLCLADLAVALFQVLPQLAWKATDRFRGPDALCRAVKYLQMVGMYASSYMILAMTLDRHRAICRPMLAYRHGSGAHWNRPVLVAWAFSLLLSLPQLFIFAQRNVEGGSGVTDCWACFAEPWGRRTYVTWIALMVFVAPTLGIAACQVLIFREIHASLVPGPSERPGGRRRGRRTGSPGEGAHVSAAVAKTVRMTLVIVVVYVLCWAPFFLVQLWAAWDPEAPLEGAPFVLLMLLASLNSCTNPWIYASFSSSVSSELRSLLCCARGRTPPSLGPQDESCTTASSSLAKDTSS

human V1a receptors = human V1a receptors (Homo sapiens, UniProt P37288); conditions: various species, in particular human V1a receptors; J. Clin. Invest., 1993, 92 224-231; cited from earlier work
human V1a receptors, sequence (P37288 whole entry): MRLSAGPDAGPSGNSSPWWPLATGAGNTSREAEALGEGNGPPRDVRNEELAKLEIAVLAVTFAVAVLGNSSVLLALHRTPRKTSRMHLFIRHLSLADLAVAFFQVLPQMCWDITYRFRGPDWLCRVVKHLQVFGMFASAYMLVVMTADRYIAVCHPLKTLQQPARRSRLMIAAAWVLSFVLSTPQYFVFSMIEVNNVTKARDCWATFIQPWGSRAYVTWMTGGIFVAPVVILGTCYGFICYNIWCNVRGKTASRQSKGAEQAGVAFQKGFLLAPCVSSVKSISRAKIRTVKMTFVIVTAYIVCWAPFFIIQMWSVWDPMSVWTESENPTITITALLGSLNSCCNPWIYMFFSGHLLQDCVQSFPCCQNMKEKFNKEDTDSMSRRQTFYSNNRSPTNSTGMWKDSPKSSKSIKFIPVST

[2] = study a, 30 mg/kg oral, D0 0-24 h after treatment
[3] = study a, 30 mg/kg oral, D-0 0-24 h after treatment
[4] = study a, group of 30 mg/kg oral, D-1 0-24 h, day before treatment (solvent only)
[5] = study a, compound A 30 mg/kg, compound B 0.3, 1 or 3 mg/kg, alone or combined
[6] = study b, 30 mg/kg oral, D0 0-24 h after treatment
[7] = study b, group of 30 mg/kg oral, D-1 0-24 h, day before treatment (solvent only)
[8] = study a, 0.3 mg/kg oral, D0 0-24 h after treatment
[9] = study a, 0.3 mg/kg oral, D-0 0-24 h after treatment
[10] = study a, 1 mg/kg oral, D0 0-24 h after treatment
[11] = study a, 1 mg/kg oral, D-0 0-24 h after treatment
[12] = study a, 3 mg/kg oral, D0 0-24 h after treatment
[13] = study a, 3 mg/kg oral, D-0 0-24 h after treatment
[14] = study a, group of 0.3 mg/kg oral, D-1 0-24 h, day before treatment (solvent only)
[15] = study a, group of 1 mg/kg oral, D-1 0-24 h, day before treatment (solvent only)
[16] = study a, group of 3 mg/kg oral, D-1 0-24 h, day before treatment (solvent only)
[17] = study b, 1 mg/kg oral, D0 0-24 h after treatment
[18] = study b, group of 1 mg/kg oral, D-1 0-24 h, day before treatment (solvent only)
[19] = study b, compound B 1 mg/kg alone or combined with compound A 3, 10 or 30 mg/kg

## COc1ccc(S(=O)(=O)N2c3ccc(Cl)cc3[C@](O)(c3ccccc3Cl)[C@@H]2C(=O)N2CCC[C@H]2C(N)=O)cc1OC [Compound A, (2S)-1-{(2R,3S)-5-chloro-3-(2-chlorophenyl)-1-(3,4-dimethoxybenzenesulfonyl)-3-hydroxy-2,3-dihydro-1H-indole-2-carbonyl}pyrrolidine-2-carboxamide]
[1]; [2]
  urinary excretion of K+: 2190 µmol
  urinary excretion of Na+: 1668 µmol
[1]; [3]
  Urinary osmolality: 2462 +/− 379^ mOsmol/kg H2O
  Urinary volume: 7.3 ± 1.2 mL
[1]; [4]
  Urinary osmolality: 1409 +/− 13 mOsmol/kg H2O
  Urinary volume: 10.7 ± 1.1 mL
  urinary excretion of K+: 2265 µmol
  urinary excretion of Na+: 1903 µmol
[1]; [5]
  effect on urinary excretion (in words): does not modify
  effect on urinary excretion of Na+ and K+ ions (in words): does not alter
  effect on urinary osmolality (in words): does not modify
[1]; [6]
  Urinary osmolality: 2462 +/− 379^ mOsmol/kg H2O
  Urinary volume: 7.3 +/− 1.2^ ml
  urinary excretion of K+: 2190 µmol
  urinary excretion of Na+: 1668 µmol
[1]; [7]
  Urinary osmolality: 1409 +/− 13 mOsmol/kg H2O
  Urinary volume: 10.7 ± 1.1 mL
  urinary excretion of K+: 2265 µmol
  urinary excretion of Na+: 1903 µmol
Human V2 receptors; literature description
  affinity for the V2 receptors (in words): low affinity
Human V1a receptors
  V1a arginine vasopressin receptor antagonism (in words): potent and selective

## CCOc1ccc2c(c1)C1(CCC(OCCN3CCOCC3)CC1)C(=O)N2S(=O)(=O)c1ccc(C(=O)NC(C)(C)C)cc1OC (stereo not drawn) [Compound B, 1-{4-(N-tert-butylcarbamoyl)-2-methoxybenzenesulfonyl}-5-ethoxy-3-spiro{4-(2-morpholino-ethyloxy)cyclohexane}indol-2-one]
[1]; [8]
  urinary excretion of K+: 2254 µmol
  urinary excretion of Na+: 1668 µmol
[1]; [9]
  Urinary osmolality: 1075 +/− 165^a mOsmol/kg H2O
  Urinary volume: 15 ± 2 mL
[1]; [10]
  urinary excretion of K+: 2334 µmol
  urinary excretion of Na+: 1783 µmol
[1]; [11]
  Urinary osmolality: 618 +/− 27^a mOsmol/kg H2O
  Urinary volume: 25 +/− 2.2^a ml
[1]; [12]
  urinary excretion of K+: 2648 µmol
  urinary excretion of Na+: 2168 µmol
[1]; [13]
  Urinary osmolality: 292 +/− 40^a mOsmol/kg H2O
  Urinary volume: 72.9 +/− 11.1^a ml
[1]; [14]
  Urinary osmolality: 1371 +/− 125 mOsmol/kg H2O
  Urinary volume: 9.1 ± 0.7 mL
  urinary excretion of K+: 2001 µmol
  urinary excretion of Na+: 1772 µmol
[1]; [15]
  Urinary osmolality: 1376 +/− 99 mOsmol/kg H2O
  Urinary volume: 9.1 ± 0.7 mL
  urinary excretion of K+: 2034 µmol
  urinary excretion of Na+: 1840 µmol
[1]; [16]
  Urinary osmolality: 1443 +/− 46 mOsmol/kg H2O
  Urinary volume: 9.5 ± 0.6 mL
  urinary excretion of K+: 2022 µmol
  urinary excretion of Na+: 1903 µmol
[1]; [5]
  effect on urinary excretion (in words): significantly increases
  effect on urinary excretion of Na+ and K+ ions (in words): no effect
  effect on urinary osmolality (in words): significantly diminishes
[1]; [17]
  Urinary osmolality: 616 +/− 51^a mOsmol/kg H2O
  Urinary volume: 31.6 +/− 3.5^a ml
  urinary excretion of K+: 2944 µmol
  urinary excretion of Na+: 2203 µmol
[1]; [18]
  Urinary osmolality: 1308 +/− 68 mOsmol/kg H2O
  Urinary volume: 11.7 ± 1.5 mL
  urinary excretion of K+: 2519 µmol
  urinary excretion of Na+: 2039 µmol
[1]; [19]
  effect on urinary excretion (in words): significantly increases
  effect on urinary excretion of Na+ and K+ ions (in words): no effect
  effect on urinary osmolality (in words): significantly diminishes
Human V2 receptors; various species, in particular human V2 receptors, J. Clin. Invest., 1996, 98, 2729-2738
  V2 arginine vasopressin receptor antagonism (in words): potent and selective
